Assay: Studies of glucosamine salts delivered by the transdermal delivery system
Source text: In accordance with the present invention, the above-indicated studies have shown that the transdermal delivery system described above can be used for delivering, for example, any glucosamine salt such as glucosamine hydrochloride, glucosamine sulfate, glucosamine sulfate stabilized with sodium chloride or potassium chloride.

N[C@H]1C(O)O[C@H](CO)[C@@H](O)[C@@H]1O.O=S(=O)(O)O.[Cl-].[K+] (stereo partly shown) [glucosamine sulfate potassium chloride]
bioavailability of glucosamine in blood plasma and synovial fluid among glucosamine salts: maximal bioavailability
